Results: patent US11767286B2, “Phenylpropionate compound, preparation method for same, and applications thereof” (SUZHOU PHARMAVAN CO., LTD, priority 2017, dated 2023)
Where two headings read alike, the source gives them in different places.

Key:
[1] = tested on: rats with acute cerebral ischemia-reperfusion; assay: Blood viscosity of rats with acute cerebral ischemia-reperfusion (blood viscometer); assay type: in vivo, SD rats; set-up: unit not given here; conditions: 4 mg/kg iv 2 h after reperfusion; blood 4 h after administration; n=5
Protocol: (§1) Trial method: Effects on inflammatory factors and blood viscosity of rats with acute cerebral ischemia-reperfusion: 70 Male SD rats underwent an MACO surgery by a suture method, and after the surgery, alive rats were randomly grouped (into 7 groups, the number of successful animals in each group was guaranteed to be 6 to 8). Blood perfusion was recovered 2 h after MCAO, and corresponding trial medicaments were intravenously injected 2 h after blood reperfusion. 4 hours after the administration, blood was collected and the rats were sacrificed to take out brain tissues. The brain tissues and part of the blood were centrifuged to collect serum which was detected for inflammatory factors, and part of the blood was detected for blood viscosity by using a blood viscometer. Detected indicators: cerebral infarction area; inflammatory factors IL-1β and TNF-α; and blood viscosity.
Table 2 lists results of effects of phenylpropionate compounds (4 mg/kg) on blood viscosity of rats (n=5).

[2] = Distribution in brain: plasma and intracerebral concentrations after intravenous injection; assay type: in vivo; conditions: both sexes, rat, rats, 4 mg/kg iv; for Kp at 10 min / Kp at 60 min / Kp at 180 min: brain/plasma, read-out: Brain/Blood Concentration Ratio
Protocol: In this example, Compounds A to E, D-bornyl ferulate, and D-tanshinol borneol ester were measured for distribution in brain. Structures of D-bornyl ferulate (Patent Application No.: 201510243181.5) and D-tanshinol borneol ester compounds are as follows:
Method for testing distribution in brain: 42 rats with a weight range of 200±20 g were taken. The rats were randomly divided into 7 groups, with 6 rats per group, half male and half female. Rats were fasted with free access to water for 12 h and then intravenously injected with 4 mg/kg of a compound. Rats in the 3 groups were sacrificed through femoral artery bleeding and collected for blood 10 min, 60 min, 180 min after administration, respectively. Brains were taken out, 0.2 g was weighted, and 1 mL of pure water was added for homogenizing. The blood samples and brain homogenate samples were stored at −20° C.
Distribution of Compounds A to E, and D-bornyl ferulate and D-tanshinol borneol ester compounds in brain: Data on concentrations of Compounds A to E, D-bornyl ferulate, and D-tanshinol borneol ester in plasma and intracerebral in rats intravenously injected with 4 mg/kg of Compounds A to E, D-bornyl ferulate, and D-tanshinol borneol ester are listed in Table 9.

[3] = tested on: platelet aggregation induced with ADP; assay: Maximum platelet aggregation rate of rabbits, induced with ADP; assay type: cell-based; conditions: rabbit plasma, 4 mg/kg as printed, n=3; for inhibition at 4 mg/kg: Oryctolagus cuniculus, Platelet
Protocol: Effects on maximum platelet aggregation rate of rabbits: 3 Rabbits were anesthetized, and blood was collected from the heart to obtain 14 parts of plasma for each rabbit (1 ml per part of plasma). 7 Parts were induced with ADP to allow platelet aggregation, and 7 parts were induced with a platelet activating factor. After the induction, a solvent, positive control drug aspirin, and 5 samples to be trialed were separately added to the plasma, and maximum platelet aggregation rate was detected with a platelet aggregation meter. The trials were repeated 3 times, and an average was taken. Detected indicator: maximum platelet aggregation rate.
Table 4 lists results of effects of phenylpropionate compounds (4 mg/kg) on platelet aggregation rate of rabbits (n=3).

TNF-α = assay: Inflammatory factor TNF-α in blood and brain tissues of rats with acute cerebral ischemia-reperfusion; assay type: in vivo, SD rats; conditions: 4 mg/kg iv 2 h after reperfusion; 4 h after administration; n=5
Protocol: as §1
Table 3 lists results of effects of phenylpropionate compounds (4 mg/kg) on inflammatory factors in blood and brain tissues of rats (n=5).

[4] = tested on: SD rat model of focal ischemia-reperfusion; assay: Dose-effect relationship in SD rat model of focal ischemia-reperfusion (MCAO); assay type: in vivo, SD rats; conditions: given 2 h after reperfusion, mean ± standard error; for Score of Symptoms of Neurological Deficits: 48 h, modified Bederson 5-point scale; for Infarction area: evaluated after 48 h
Protocol: In this example, phenylpropionate compounds were studied for dose-effect relationship, with D-bornyl ferulate (administrated at 4.0 mg/kg) and D-tanshinol borneol ester (administrated at 4.0 mg/kg) as positive control drugs. Structures of D-bornyl ferulate (Patent Application No.: 201510243181.5) and D-tanshinol borneol ester compounds are as follows:
Trial method: A cerebral ischemia reperfusion model of middle cerebral artery occlusion (MCAO) was prepared by an internal carotid artery suture method. An animal was anesthetized with 10% chloral hydrate (3.6 mL/kg) and then fixed on an operating table in a supine position. Its skin was disinfected, and a midline incision was made on the neck. The right common carotid artery, external carotid artery, and internal carotid artery were separated, the vagus nerve was gently striped off, and the external carotid artery was ligated and cut. The common carotid artery was clamped at the proximal end. […] The nylon thread was advanced through the bifurcation of the common carotid artery into the internal carotid artery, and then was slowly inserted until there was slight resistance (about 20 mm from the bifurcation) to block all the blood supply to the middle cerebral artery. 2 h after cerebral ischemia, the nylon thread was gently pulled out to restore blood supply for reperfusion, and the neck skin was sutured and disinfected. The animal was put back in a cage and raised. During the modeling operation, animals with abnormal conditions due to anesthesia, surgery, etc. were excluded, and successfully modeled animals were randomly grouped. Schemes were set according to different trial doses, and drug treatment was given 2 h after cerebral ischemia-reperfusion. Death conditions were recorded every day after the surgery, and indicators were evaluated after 48 h. In the whole trial process, general conditions were observed, mainly including: death, coma, breathing, urine and feces traits, hair colors, mental status, vomiting and vomitus, bleeding, convulsion, spasm, etc. Abnormal animals due to unexpected factors were excluded. Finally, unblinding was conducted by a person who made blind trials.
Evaluated indicator: (1) Evaluation of symptoms of neurological deficits: The symptoms of neurological deficits were evaluated by using a modified Bederson 5-point scale. A single-blind method was used for evaluating the symptoms of neurological deficits in rats with brain trauma. That is, a trial designer marked animals in accordance with groups, and an experimenter who scored the symptoms of neurological deficits had no knowledge of how the animals were grouped. After scoring was completed, the scorer submitted scoring results for various marks to the designer, and the designer performed unblinding to obtain scores of animals in each trial group. (2) Measurement of cerebral infarction area: A method reported in the literature was used. An animal was anesthetized with 10% chloral hydrate and decapitated to collect brain. The olfactory bulb, cerebellum and lower brain stem were removed. Blood stains on the surface of the brain were rinsed with normal saline, the residual water stains on the surface were absorbed, and the brain was placed at −80° C. for 7 min. After the brain was taken out, a coronal section was immediately made at downwards and vertical to the sight intersection plane, and brain slices were made every 2 mm backwards. Brain slices were placed in a TTC (20 g/L) dye solution prepared with 0.9% normal saline, and incubated at 37° C. for 90 min. Normal brain tissues were stained deep red, and ischemic brain tissues were pale-white. After rinsed with normal saline, the brain sections were quickly arranged in order from front to back, the residual water stains on the surface were absorbed to dryness, and pictures were taken. Image analysis software was used for statistics on the pictures. […]

[5] = brain, read-out: Mean Intracerebral Concentration
[6] = plasma, read-out: Mean Plasma Concentration

| Compound | Blood viscosity, High Shear [1] | Blood viscosity, Low Shear [1] | Kp at 10 min [2] | Kp at 60 min [2] | Kp at 180 min [2] | concentration at 10 min [2, 5] [ng/g] | concentration at 60 min [2, 5] [ng/g] | concentration at 180 min [2, 5] [ng/g] | concentration at 10 min [2, 6] [ng/mL] | concentration at 60 min [2, 6] [ng/mL] | concentration at 180 min [2, 6] [ng/mL] | inhibition at 4 mg/kg [3] [%] | Maximum Aggregation Rate [3] [%] | TNF-α (TNF-α) [ng/L] | Score of Symptoms of Neurological Deficits ([4]; 2.0 mg/kg) | Infarction area ([4]; 2.0 mg/kg) [%] | Score of Symptoms of Neurological Deficits ([4]; 4.0 mg/kg) | Infarction area ([4]; 4.0 mg/kg) [%] | Score of Symptoms of Neurological Deficits ([4]; 8.0 mg/kg) | Infarction area ([4]; 8.0 mg/kg) [%] |
| --- | --- | --- | --- | --- | --- | --- | --- | --- | --- | --- | --- | --- | --- | --- | --- | --- | --- | --- | --- | --- |
| COc1cc(CCC(=O)O[C@H]2C[C@H]3CC[C@]2(C)C3(C)C)cc(F)c1O [Compound A] | 2.56 ± 0.057 | 13.2 ± 0.535 | 2.6 | 5.7 | 3.2 | 2640 ± 517 | 1420 ± 309 | 311 ± 115 | 1020 ± 192 | 252 ± 76.5 | 97.3 ± 22.7 | 52.3 | 15.7 ± 6.31 | 615 ± 42.9 | 2.05 ± 0.20 | 24.73 ± 2.63 | 1.94 ± 0.19 | 20.25 ± 2.53 | 1.75 ± 0.21 | 18.38 ± 2.74 |
| COc1cc(CCC(=O)O[C@H]2C[C@H]3CC[C@]2(C)C3(C)C)cc(OC)c1O [Compound C] | 2.70 ± 0.982 | 13.9 ± 1.014 | 2.9 | 11 | 2 | 2630 ± 167 | 1870 ± 406 | 188 ± 51.9 | 906 ± 145 | 160 ± 49.1 | 92.2 ± 35.5 | 56.5 | 14.3 ± 5.64 | 634 ± 25.1 | 2.45 ± 0.13 | 22.24 ± 2.84 | 2.18 ± 0.23 | 21.04 ± 2.14 | 1.98 ± 0.14 | 19.32 ± 3.53 |
